Where two headings read alike, the source gives them in different places.
Assays:
Type in all cases: in vivo
Plasmopara viticola = experiment: Test B: grape downy mildew, spray 24 h after inoculation (disease rating, 100 = 100% disease control)
Excerpt: (§1) The test compounds were first dissolved in acetone in an amount equal to 3% of the final volume and then suspended at the desired concentration (in ppm) in acetone and purified water (50/50 mix by volume) containing 250 ppm of the surfactant Trem® 014 (polyhydric alcohol esters). The resulting test suspensions were then used in tests A-E. Spraying a 200 ppm test suspension to the point of run-off on the test plants was the equivalent of a rate of 500 g/ha.
Grape seedlings were inoculated with a spore suspension of Plasmopara viticola (the causal agent of grape downy mildew) and incubated in a saturated atmosphere at 20° C. for 24 h. After a short drying period, the test suspension was sprayed to the point of run-off on the grape seedlings and then moved to a growth chamber at 20° C. for 5 days, after which the test units were placed back into a saturated atmosphere at 20° C. for 24 h. Upon removal, disease ratings were made.
(§2) Results for Tests A-F are given in Table A. In the table, a rating of 100 indicates 100% disease control and a rating of 0 indicates no disease control (relative to the controls). A dash (-) indicates no test results.

[1] = tested on: Erysiphe graminis f. sp. tritici; experiment: Test E: wheat powdery mildew, spray the day before inoculation (disease rating, 100 = 100% disease control)
Excerpt: as §1
The test suspension was sprayed to the point of run-off on wheat seedlings. The following day the seedlings were inoculated with a spore dust of Erysiphe graminis f. sp. tritici, (the causal agent of wheat powdery mildew) and incubated in a growth chamber at 20° C. for 7 days, after which disease ratings were made.
as §2

Phytophthora infestans [2] = experiment: whole plant or invertebrate; conditions: for Test D disease rating (100 = 100% disease control, 0 = no disease control): tomato late blight
Phytophthora infestans [3] = experiment: whole plant or invertebrate; conditions: for Test C disease rating (100 = 100% disease control, 0 = no disease control): tomato late blight
[4] = spray 24 h after inoculation, compounds without asterisk (not 40 or 10 ppm)
[5] = spray the day before inoculation, compounds without asterisk (not 40 or 10 ppm)
[6] = spray 17 h after inoculation, compounds without asterisk (not 40 or 10 ppm)
[7] = sprayed 24 h after inoculation, unmarked compounds (no asterisk, not 40 or 10 ppm)
[8] = sprayed the day before inoculation, 7 days at 20° C., unmarked compounds (no asterisk, not 40 or 10 ppm)
[9] = sprayed 17 h after inoculation, unmarked compounds (no asterisk, not 40 or 10 ppm)
[10] = sprayed the day before inoculation, unmarked compounds (no asterisk, not 40 or 10 ppm)
[11] = sprayed 24 h after inoculation, tested at 10 ppm (**)
[12] = sprayed 17 h after inoculation, tested at 10 ppm (**)
[13] = sprayed the day before inoculation, tested at 10 ppm (**)

SMILES | Test B disease rating (100 = 100% disease control, 0 = no disease control) (Plasmopara viticola; [4]) | Test E disease rating (100 = 100% disease control, 0 = no disease control) [1, 5] | Test C disease rating (100 = 100% disease control, 0 = no disease control) (Phytophthora infestans [3]; [5]) | Test B disease rating (100 = 100% disease control, 0 = no disease control) (Plasmopara viticola; [7]) | Test D disease rating (100 = 100% disease control, 0 = no disease control) (Phytophthora infestans [2]; [9]) | Test C disease rating (100 = 100% disease control, 0 = no disease control) (Phytophthora infestans [3]; [10]) | other results
Cc1cc(C(F)(F)F)nn1CC(=O)N1CCC(c2nc(C(=O)N(C)C3CCC(C)c4ccccc43)cs2)CC1 (mixture of isomers) [compound 192] | 97% | 0% | 100% | – | – | – | Test D disease rating (100 = 100% disease control, 0 = no disease control) (Phytophthora infestans [2]; [6]): 99%
Cc1cc(C(F)(F)F)nn1CC(=O)N1CCC(c2nc(C(=O)N(C)C3CCCC4CCCCC43)cs2)CC1 (mixture of isomers) [compound 254] | – | – | – | 95 | 99 | 99 | Test E disease rating (100 = 100% disease control, 0 = no disease control) [1, 8]: 0
Cc1cc(C(F)(F)F)nn1CC(=O)N1CCC(c2nc(C(=O)N(C)[C@@H]3CC[C@@H](O)c4ccccc43)cs2)CC1 (racemic) [Compound 206, N-methyl-2-[1-[[5-methyl-3-(trifluoromethyl)-1H-pyrazol-1-yl]acetyl]-4-piperidinyl]-N-[(1R,4R)-1,2,3,4-tetrahydro-4-hydroxy-1-naphthalenyl]-4-thiazolecarboxamide] | – | – | – | – | – | – | pest or weed control at 40 ppm (Plasmopara viticola; Plasmopara viticola, 144 h, spray 24 h after inoculation, tested at 40 ppm, read-out: Test B disease rating (100 = 100% disease control, 0 = no disease control)): 99%; pest or weed control at 40 ppm ([1]; Blumeria graminis, topical, 168 h, spray the day before inoculation, tested at 40 ppm, read-out: Test E disease rating (100 = 100% disease control, 0 = no disease control)): 0%; pest or weed control at 40 ppm (Phytophthora infestans [2]; Phytophthora infestans, in Solanum lycopersicum, topical, 96 h, read-out: Test D disease rating (100 = 100% disease control, 0 = no disease control)): 99%; pest or weed control at 40 ppm (Phytophthora infestans [3]; Phytophthora infestans, in Solanum lycopersicum, 144 h, read-out: Test C disease rating (100 = 100% disease control, 0 = no disease control)): 100%
Cc1ccc(C)c(CC(=O)N2CCC(c3nc(C(=O)N(C)C(C#N)c4ccccc4)cs3)CC2)c1 (stereo not drawn) [compound 102] | 100% | 0% | 99% | – | – | – | –
C=CC(c1ccccc1)N(C)C(=O)c1csc(C2CCN(C(=O)Cc3cc(C)ccc3C)CC2)n1 (stereo not drawn) [compound 103] | 100% | 79% | 71% | – | – | – | –
C=CCC(c1ccccc1)N(C)C(=O)c1csc(C2CCN(C(=O)Cc3cc(C)ccc3C)CC2)n1 (stereo not drawn) [compound 104] | 100% | 0% | 87% | – | – | – | –
Cc1ccc(C)c(CC(=O)N2CCC(c3nc(C(=O)N(C)[C@H](C)c4cccc5ccccc45)cs3)CC2)c1 [compound 105] | 96% | 0% | 100% | – | – | – | –
Cc1ccc(C)c(CC(=O)N2CCC(c3nc(C(=O)N(C)[C@H](C)c4ccc5ccccc5c4)cs3)CC2)c1 [compound 106] | 0% | 0% | 24% | – | – | – | –
CC[C@H](c1ccccc1)N(C)C(=O)c1csc(C2CCN(C(=O)Cc3cccc(Br)c3)CC2)n1 [compound 107] | 99% | 0% | 100% | – | – | – | –
CC[C@H](c1ccccc1)N(C)C(=O)c1csc(C2CCN(C(=O)Cc3cccc(C(F)(F)F)c3)CC2)n1 [compound 108] | 99% | 0% | 100% | – | – | – | –
COCC(c1ccccc1)N(C)C(=O)c1csc(C2CCN(C(=O)Cc3cc(C)ccc3C)CC2)n1 (stereo not drawn) [compound 109] | 99% | 94% | 99% | – | – | – | –
COc1ccc(CCN(C)C(=O)c2csc(C3CCN(C(=O)Cc4cc(C)ccc4C)CC3)n2)cc1OC [compound 171] | 0% | 0% | – | – | – | – | Test D disease rating (100 = 100% disease control, 0 = no disease control) (Phytophthora infestans [2]; [6]): 24%
Cc1cc(C(F)(F)F)nn1CC(=O)N1CCC(n2nnc(C(=O)N(C)[C@@H]3CCCc4ccccc43)n2)CC1 [compound 256] | – | – | – | – | – | – | Test B disease rating (100 = 100% disease control, 0 = no disease control) (Plasmopara viticola; sprayed 24 h after inoculation, tested at 40 ppm (*)): 99; Test D disease rating (100 = 100% disease control, 0 = no disease control) (Phytophthora infestans [2]; sprayed 17 h after inoculation, tested at 40 ppm (*)): 86; Test C disease rating (100 = 100% disease control, 0 = no disease control) (Phytophthora infestans [3]; sprayed the day before inoculation, tested at 40 ppm (*)): 100
Cc1cc(Cl)nn1CC(=O)N1CCC(c2nc(C(=O)N(C)[C@@H]3CCCc4ccccc43)cs2)CC1 [compound 257] | – | – | – | – | – | – | Test B disease rating (100 = 100% disease control, 0 = no disease control) (Plasmopara viticola; [11]): 99; Test D disease rating (100 = 100% disease control, 0 = no disease control) (Phytophthora infestans [2]; [12]): 99; Test C disease rating (100 = 100% disease control, 0 = no disease control) (Phytophthora infestans [3]; [13]): 100
Cc1cc(Br)nn1CC(=O)N1CCC(c2nc(C(=O)N(C)[C@@H]3CCCc4ccccc43)cs2)CC1 [compound 258] | – | – | – | – | – | – | Test B disease rating (100 = 100% disease control, 0 = no disease control) (Plasmopara viticola; [11]): 100; Test D disease rating (100 = 100% disease control, 0 = no disease control) (Phytophthora infestans [2]; [12]): 99; Test C disease rating (100 = 100% disease control, 0 = no disease control) (Phytophthora infestans [3]; [13]): 100
C[C@H](NC(=O)c1csc(C2CCN(C(=O)Cc3ccccc3Cl)CC2)n1)c1ccccc1 [compound 260] | – | – | – | 14 | – | 0 | Test E disease rating (100 = 100% disease control, 0 = no disease control) [1, 8]: 0
Cc1cc(C(F)(F)F)nn1CC(=O)N1CCC(c2nc(C(=O)N[C@H](C)c3ccccc3)cs2)CC1 [compound 301] | – | – | – | 99 | 80 | 99 | –
CCN(C(=O)c1csc(C2CCN(C(=O)Cn3nc(C(F)(F)F)cc3C)CC2)n1)[C@H](C)c1ccccc1 [compound 302] | – | – | – | 86 | 26 | 95 | –
CCCN(C(=O)c1csc(C2CCN(C(=O)Cn3nc(C(F)(F)F)cc3C)CC2)n1)[C@H](C)c1ccccc1 [compound 303] | – | – | – | 45 | 26 | 95 | –
C=CCN(C(=O)c1csc(C2CCN(C(=O)Cn3nc(C(F)(F)F)cc3C)CC2)n1)[C@H](C)c1ccccc1 [compound 304] | – | – | – | 72 | 26 | 57 | –
Cc1cc(C(F)(F)F)nn1CC(=O)N1CCC(c2nc(C(=O)N[C@@H]3CCCc4ccccc43)cs2)CC1 [compound 305] | – | – | – | 100 | 99 | 100 | –
CCN(C(=O)c1csc(C2CCN(C(=O)Cn3nc(C(F)(F)F)cc3C)CC2)n1)[C@@H]1CCCc2ccccc21 [compound 306] | – | – | – | 96 | 83 | 100 | –

From US8586611B2 (priority 2005, dated 2013)
